In publication PMC12040169 (PLOS Biology, 2025):

Experiment: in vitro
Details: human, hela cells, % viability

Going from COc1cc(CN2CCN(Cc3cccc4ccccc34)CC2)c([N+](=O)[O-])cc1OC [CBK074450G] to CCN(CC)C(=O)CN1CCN(c2nccnc2Oc2ccc(OC)c(OC)c2)CC1 [CBK083051T], the viability at 28.5 h, 10 µM falls from 106% to 103%.

Compared with CC(=O)OC(COc1cccc(Cl)c1)Cn1cnc2cc(C)c(C)cc21 (stereo not shown) [CBK266152], COc1cc(OC)c(NC(=O)C(C)Oc2cccc(C)c2)cc1Cl (stereo not shown) [CBK268646] is higher in viability at 28.5 h, 10 µM: 86.6% for the first, 107% for the second.

First: CCOC(=O)c1sc(NCCOc2cccc(C)c2)nc1C [CBK265574]
Second: CCOC(=O)C(NC(=O)c1cc[nH]n1)c1cccc(C)c1C (stereo not shown) [CBK304131]
The viability at 28.5 h, 10 µM of the first is lower: 85.2% for the first, 85.5% for the second.

Compared with OCCC1CNCCN1CC1CCCCC1 (stereo not shown) [CBK270115], CC1(C)SC(NCC2CCCCC2)=NC1=O [CBK067808] is lower in viability at 28.5 h, 10 µM: 97.2% for the first, 91.2% for the second.

Going from O=C(O)c1cc(-n2c(S)nnc2-c2cnccn2)ccc1Cl [CBK269285] to Cc1ccnn1CCC(=O)N1CCCC1c1cc2cccnc2[nH]1 (stereo not shown) [CBK282230], the viability at 28.5 h, 10 µM rises from 86.2% to 111%.

Compared with CC(C)(C)C1=CC2=NC3(CCCC3)[C@@H]3C[C@@H](O)[C@@H](O)[C@@H]3N2O1 [CBK303245], COc1ccc([C@@]23CCC(NC(=O)Nc4ccccc4OC(F)F)C[C@@H]2N(C)CC3)cc1OC (stereo partly shown) [CBK047547T] is higher in viability at 28.5 h, 10 µM: 95.1% for the first, 97.9% for the second.

Compared with CCOC(=O)C1CC2CCC1C[C@]21NC(=O)c2ccccc2N1 (stereo partly shown) [CBK284441], Cc1[nH]c2c(C)ccc(C)c2c1CC(=O)N1[C@@H](c2ccccc2F)C[C@@H]2NC(=O)CCC[C@H]21 [CBK286011] is lower in viability at 28.5 h, 10 µM: 93.4% for the first, 76.3% for the second.

First: CC(NC(=O)c1cc2ccccc2c(=O)[nH]1)c1ccc(-c2ccccc2)cc1 (stereo not shown) [CBK297936]
Second: CC(NC(=O)c1ncoc1-c1ccc2ccccc2c1)c1cccnc1 (stereo not shown) [CBK282441]
The viability at 28.5 h, 10 µM of the first is lower: 86.4% for the first, 94.2% for the second.

First: N#Cc1sc2c(c1NC(=O)C(F)(F)F)CCCC2 [CBK019233]
Second: CCCC(=O)Nc1c(F)cc(F)cc1OC1CCNCC1 [CBK045892T]
The viability at 28.5 h, 10 µM of the first is higher: 92.1% for the first, 91.1% for the second.

Compared with CN1CCN(C(=O)c2ccc(-c3ccccc3)nc2NCCc2ccccn2)CC1 [CBK076550], Cc1ccc(S(=O)(=O)Cc2ccc(C(=O)N3CCN(Cc4ccccc4)CC3)cc2)cc1 [CBK269588] is lower in viability at 28.5 h, 10 µM: 93.3% for the first, 86.1% for the second.

Going from Nc1ncnc(NCCCN2CCOCC2)c1[N+](=O)[O-] [CBK267267] to Cc1ccc(SCCNCCN2CCOCC2)cc1 [CBK268581G], the viability at 28.5 h, 10 µM rises from 91.8% to 104%.

Compared with CCc1nc2ccc(C(=O)N3CCN(C)CC3)cn2c1N(C)Cc1ccc(NC(C)=O)cc1 [CBK145603], CCOc1ccc(NC(=O)Nc2ccc(CC(=O)O)cc2)cc1 [CBK266945] is higher in viability at 28.5 h, 10 µM: 87% for the first, 112% for the second.

Compared with Brc1ccc2c(c1)[C@H]1C=CC[C@H]1[C@@H](c1ccccc1)N2 [CBK303238], CS(=O)(=O)c1ccc(-c2c[nH]c([C@@H]3COCCN3Cc3ccccc3)n2)cc1 [CBK289300] is lower in viability at 28.5 h, 10 µM: 89% for the first, 83.1% for the second.

Going from CC(CNC(=O)C(C)Oc1ccccc1)CN(C)C (stereo not shown) [CBK268658] to CCN(C(=O)c1cnc2n(c1=O)CCS2)c1ccccc1 [CBK287384], the viability at 28.5 h, 10 µM rises from 94% to 103%.

Going from Cc1ccc(C(=O)COC(=O)c2cccc(C)c2O)cc1[N+](=O)[O-] [CBK264081] to CCOC(=O)C1=C(Nc2ccc([N+](=O)[O-])cc2)S/C(=C\c2ccc(O)c(OC)c2)C1=O [CBK263873], the viability at 28.5 h, 10 µM falls from 90.5% to 89.3%.

Going from Cc1noc(C2(O)CCN(CCc3ccc(F)c(F)c3)C2)n1 (stereo not shown) [CBK304753] to CC(C)c1ccc(CN2CCC3(CC2)CN(CCO)c2ccccc23)cc1 [CBK122708], the viability at 28.5 h, 10 µM falls from 93.9% to 93.4%.

First: COC(=O)C1CCN(C(=O)c2ccc(Oc3cccc(Br)c3)nc2)CC1 [CBK304235]
Second: O=C(NC(c1ccc(F)cc1)c1ccccn1)C1CCN(C(=O)c2ccno2)CC1 (stereo not shown) [CBK059705]
The viability at 28.5 h, 10 µM of the first is higher: 103% for the first, 99.9% for the second.

Compared with FC(F)(F)c1ccnc(SCCc2ccncc2)n1 [CBK105302], CCOC(=O)Cn1ccc2ccnc(-c3cccs3)c21 [CBK285200] is higher in viability at 28.5 h, 10 µM: 95.3% for the first, 107% for the second.

Going from CN1CCCC(NC(=O)c2cc(-c3cccs3)no2)C1 (stereo not shown) [CBK282564] to CS(=O)(=O)NC1CCCN(c2ccc3ccccc3n2)C1 (stereo not shown) [CBK306457], the viability at 28.5 h, 10 µM rises from 87.2% to 99.7%.

Going from CCN(CCO)c1ccc(Nc2nc(-c3cccc4ccccc34)cn3ccnc23)cc1 [CBK066243] to Cc1ccccc1-c1ccccc1CC1(C(N)=O)CCN(C(=O)c2cccc(F)c2)CC1 [CBK285726], the viability at 28.5 h, 10 µM rises from 87.9% to 94.2%.

First: CCc1nn(CC(=O)N(CC)CC)c(=O)c2cc3oc(C)cc3n12 [CBK283583]
Second: Cc1cc(C)c2c(c1)cc(C)c1nn(CC(=O)N(C)C)c(=O)n12 [CBK283927]
The viability at 28.5 h, 10 µM of the first is higher: 99.5% for the first, 96.9% for the second.

Compared with O=C(CSc1ccc(Cl)cc1)Nc1cc(C(=O)O)cc(C(=O)O)c1 [CBK266531], CCCc1cc(O)nc(SCC(=O)Nc2ccc(Cl)cc2Cl)n1 [CBK265147] is lower in viability at 28.5 h, 10 µM: 98.8% for the first, 83.7% for the second.

First: CC(C)NC(=O)C1(Cc2ccc(-c3ccccc3F)cc2)CCN(C(=O)C(C)C)CC1 [CBK285754]
Second: O=C(c1ccc(F)cc1)[C@H]1CCCN(C(=O)c2cc[nH]n2)C1 [CBK284331]
The viability at 28.5 h, 10 µM of the first is higher: 102% for the first, 87.3% for the second.

First: O=C(c1nc2ccccc2[nH]1)N1CCc2ccccc21 [CBK200411]
Second: O=C(O)C1=NN(c2ccccc2)C(=O)CC1 [CBK270176]
The viability at 28.5 h, 10 µM of the first is higher: 87.8% for the first, 84.4% for the second.

Going from O=C(O)CNC(=O)/C(=C\c1ccc(F)cc1)NC(=O)c1ccco1 [CBK263718] to CCc1cc(=O)oc2cc(OC(=O)c3ccco3)ccc12 [CBK264657], the viability at 28.5 h, 10 µM falls from 96.4% to 84.8%.

Going from COc1ccc(S(=O)(=O)N2CCCCC2)cc1NC(=O)c1ccc(-c2nnn[nH]2)cc1 [CBK297128] to Cn1cc(C(=O)Nc2cccc(S(=O)(=O)N3CCCCCC3)c2)cn1 [CBK305715], the viability at 28.5 h, 10 µM falls from 93% to 87.2%.

Compared with CCC12CN3CC(CC)(CN(C1)C3c1c(C)[nH]c3ccccc13)C2=O (stereo not shown) [CBK265547], CCC(C)(C)Nc1cccnc1N(C)C1CCN(C(=O)c2cc3cc(N)ccc3[nH]2)CC1 [CBK016674] is lower in viability at 28.5 h, 10 µM: 89.4% for the first, 80.3% for the second.

Going from Cc1[nH]c(=O)[nH]c(=O)c1CC(=O)N1CCc2ncc(Cl)cc2C1 [CBK286302] to COc1ccc(C2=NN(C(=O)CCC(=O)O)C(c3cccs3)C2)cc1OC (stereo not shown) [CBK266656], the viability at 28.5 h, 10 µM rises from 101% to 118%.

Compared with Oc1cc(-c2ccccc2Cl)[nH]n1 [CBK074226], CN(CCc1ccccn1)Cc1cc(Br)cs1 [CBK021314] is lower in viability at 28.5 h, 10 µM: 95.6% for the first, 92.8% for the second.

Going from CCCCCC(=O)Nc1c(C)cc(Br)cc1C [CBK058159] to CC(=O)OCc1c(C)cc(C)c(CN(C)C(C)c2ccncn2)c1C (stereo not shown) [CBK307315], the viability at 28.5 h, 10 µM falls from 116% to 95.1%.

First: N=C(NC(=S)Nc1ccccc1)N1CCN(Cc2ccccc2)CC1 [CBK267878]
Second: O=C(NCCN1CCOCC1)N(c1ccccc1)c1ccccc1 [CBK270057]
The viability at 28.5 h, 10 µM of the first is higher: 106% for the first, 92.8% for the second.

Work on CCOCc1c(O)ccc2c([N+](=O)[O-])c(C)n(-c3ccc(OC)cc3)c12 [CBK095589] yielded a viability at 28.5 h, 10 µM of 87.8%.

Same assay, conditions: human, hela cells, % viability, bulk resorufin, single well

With COc1cc(/C=C2/C(=O)NC(=O)N(c3ccc(C)c(Cl)c3)C2=O)ccc1OC(C)C [CBK265156] the viability at 28.5 h, 10 µM was 118%.
